Measurements reported in patent US9492450B2, “Inhibition of dynamin related protein 1 to promote cell death” (University of Pittsburgh—of the Commonwealth System of …, priority 2011, dated 2016).

Assays:
MDA-MB-231 cells = assay: MTS colorimetric survival assay; format: cell-based, human; conditions: agent alone, 72 h, read-out: IC50, inhibition of growth / survival
Experimental: FIG. 19A-E. Combination of cisplatin and mdivi-1 produces synergistic pro-apoptotic effect in multidrug resistant tumor cells. (A) MDA-MB-231 cells were treated with increasing doses of mdivi-1 for 72 h. The survival was assessed by MTS assay. […] (B) MDA-MB-231 cells were treated with increasing doses of cisplatin alone or the combination with 20 μM or 50 μM of mdivi-1 for 72 h. The survival was assessed by MTS assay. (C) MDA-MB-231 cells were exposed to cisplatin and mdivi-1 alone or combination at their IC50 or 0.5 fold of their IC50. The combination index (CI) and the normalized isobologram were generated using CompuSyn. […] The compounds were then washed out and the cell number was determined every 24 h by CyQuant assay. […] The number of apoptotic cells was determined with antibody recognizing cleaved caspase-3 followed by flow cytometry.
Cell proliferation was determined using a CyQUANT Direct Cell Proliferation Assay kit (Invitrogen), the activity of caspase-3/7 was measured using a Caspase-Glo 3/7 Assay Systems (Promega, Madison, Wis.), and the MTS colorimetric survival assay was performed using the CellTiter 96 AQueous One Solution Cell Proliferation Assay kit (Promega, Madison, Wis.), according to the manufacturer's instructions. The survival fractions were calculated after setting untreated control cells at 100%. […]

[1] = Solubility of mdivi-1 with carrier compounds; format: physicochemical; conditions: 1 mM mdivi-1
[2] = system: Bax/Bak WT and double knockout (DKO) SV40-transformed MEF cells; assay: Apoptosis, ROS and mitochondrial morphology in Bax/Bak MEF cells; format: cell-based, mouse; conditions: cisplatin alone 20 h in DKO cells; combination within 8 h
Experimental: FIG. 24A-E. The combination of cisplatin and mdivi-1 enhances MOMP bypassing Bax/Bak-dependent mechanism. (A) Bax/Bak wild-type (Bax/Bak+/+) and double knockout (Bax/Bak−/−) SV40-transformed MEF cells were treated with cisplatin at indicated concentrations for 20 h. The cleavage of caspase-9 and -3 were detected by western blot. (B, C) Cleavage of caspase-9 and -3 in Bax/Bak wild-type and double knockout MEF cells after combination treatment. (D) Quantification of apoptotic cells by Annexin V and PI after 8 h treatment of combination at 50 μM. (E) Release of cytochrome c from Bax/Bak wild-type and double knockout MEF cells after combination treatment.
FIG. 25A-I. Mdivi-1 causes mitochondrial dysfunction and its combination with cisplatin induces mitochondrial swelling that triggers Bax/Bak-independent MOMP. (A) MDA-MB-231 cells and H1299 cells were treated as indicated for 4 h and subjected to ATP determination. […] (B, C) OCR and ECAR were measured after 4 h treatment of H1299 cells with agents alone or the combination (C/M). […] Mitochondrial membrane potential was determined with TMRM. […] Mitochondrial membrane potential was measured as in D. (F) Bax/Bak double knockout MEF cells were treated as indicated for 2 h, ROS generation was determined with DCF-DA. […] Mitochondrial morphology was analyzed by confocal microscopy. […] Mitochondrial ultrastructure was analyzed by electron microscopy. […]

| SMILES | IC50 (MDA-MB-231 cells) [µM] | solubility of mdivi-1 ([1]; 40% 2-Hydroxypropyl-β-cyclodextrin/PBS) | solubility of mdivi-1 ([1]; human serum albumin as vehicle, 15% HSA in 0.85% sodium chloride) | cleavage of caspase-9 and -3 [2] |
| --- | --- | --- | --- | --- |
| COc1cc(-n2c(=S)[nH]c3ccccc3c2=O)c(Cl)cc1Cl [mdivi-1] | 55.9 ± 1.92 | improve the solubility | improve the solubility | – |
| N.N.[Cl][Pt][Cl] [cisplatin] | – | – | – | absence of cleavage of caspase-9 and -3 |
